Data: patent publication US20120329860A1, “Uses of Beta-Nicotinamide Adenine Dinucleotide” (MEDICAL COLLEGE OF GEORGIA INSTITUTE, INC, priority 2010, published 2012)
Entries after “also recorded” stand apart in the source; their conditions may differ.

Legend:
[1] = test system: Myeloperoxidase (MPO); assay: Myeloperoxidase (MPO) activity and staining in lungs; assay type: in vivo, mice
Description: MPO is a hemoprotein that is abundantly expressed in polymorphonuclear leukocytes (neutrophils) and secreted during their activation. MPO assay was carried out according to the manufacturer's assay protocol (Cayman Chemicals). Lungs of vehicle, LPS or LPS/b-NAD treated mice were used for the MPO assay. Lungs (free of blood) were weighed and snap frozen in liquid nitrogen. The left lung was weighed and homogenized in the lysis buffer and then centrifuged (12,000×g, 30 min). The protein from the clear supernatant was estimated and normalized from different treatment and analyzed for the MPO levels by ELISA. Values represent mean±SEM (n=3).

[2] = test system: Rac1; assay: G-LISA Rac activation assay in HPAEC; assay type: cell-based, human; settings: 50 mM β-NAD, time course; basal by 30 min
Description: (§1) Protein extracts were separated by SDS-PAGE, transferred to nitrocellulose membrane and probed with specific antibodies. Horseradish peroxidase-conjugated goat anti-rabbit IgG antibody (Santa Cruz Biotechnology, Santa Cruz, Calif.) was used as the secondary antibody, and immunoreactive proteins were detected using enhanced chemiluminescence detection kit (ECL) according to the manufacturer's protocol (Amersham, Little Chalfont, UK). For quantification, immunoblot data were analyzed using NIH Image 1.63 software. Active Rac1 was determined using G-LISA Rac activation assay according to the manufacturer's recommendations (Cytoskeleton Inc., Denver, Colo.).

[3] = test system: pro-inflammatory/anti-inflammatory cytokines gene expression; assay: qPCR of cytokine gene expression in lungs; assay type: in vivo; settings: LPS/β-NAD vs LPS only mice
Description: Total RNA was prepared from the lung of mouse tissue using RNeasy mini kit (Qiagen, Valencia, Calif.). The mRNA was reverse-transcribed into complementary deoxyribonucleic acid (cDNA) using iScript reagents from Bio-Rad on a programmable thermal cycler (PCR-Sprint, Thermo Electron, Milford, Mass.). 50 ng of cDNA was amplified in each real-time polymerase chain reaction using ABgene reagents (distributed by Fisher Scientific), Bio-Rad myiQ Cycler and Custom-designed primers for genes specific to the mice (Integrated DNA Technologies, Coralville, Iowa). The Reverse transcription reaction was carried out for 25 min at 42° C. and terminated for 5 min at 85° C. Real time PCR was performed by denaturation for 30 sec at 94° C., annealing for 30 sec at 60° C. for a total of 40 cycles. The glyceraldehyde-3-phosphate dehydrogenase (GAPDH) was used to normalize the expression of the target genes.

[4] = test system: LPS-induced ALI in mice; assay: Evans Blue Dye-albumin (EBD) lung permeability; assay type: in vivo
Description: (§2) Mice were anesthetized with ketamine (150 mg/kg) and acetylpromazine (15 mg/kg) intraperitoneally (i.p.) before the exposure of the trachea via neck incision and intubation with 20-guage catheter and the right internal jugular vein was exposed via right chest incision for PBS or b-NAD installation. The mice were randomly divided into groups. LPS or sterile saline was instilled intratracheally (i.t.) via a 20-gauge catheter. Simultaneously, mice received either b-NAD (5.4 mg/kg, equivalent to final calculated plasma concentration […] or PBS in the control group intravenously (i.v.) through the internal jugular vein (IJ). The animals were allowed to recover for 18 hr. EBD was given through the IJ 2 hr prior to termination of the experiment. At termination, bronchoalveolar lavage (BAL) was collected. BAL was 1ml of 10% HBSS through the endotracheal catheter immediately on sacrifice with aspiration. BAL was immediately centrifuged and processed. After the BAL, ethylenediaminetetraacetic acid (EDTA) was used to flush the lungs of blood via the right heart ventricle and the lungs were then harvested. BAL and lungs were collected and stored at −70° C. for evaluation of lung injury.
Measurement of EBD concentration in the lungs was performed by injection of EBD (20 mg/kg) into the right internal jugular vein 2 hr before the termination of the experiment to assess the vascular leak. Lungs free of blood were weighed and snap frozen in liquid nitrogen. The left lung was weighed and homogenized, then incubated with two volumes of formamide (18 hr, 60° C.) and centrifuged (5000 g, 30 min, 20° C.). The extravasated EBD concentration (mg/g, lung) in the lung homogenate was calculated against a standard curve. In a separate experiment the EBD was injected into the right internal jugular vein as described above at 2 hrs prior to termination of the experiment and the left lung gross anatomy view was photographed with a Leica NCL150 Camera.

[5] = test system: LPS-induced ALI in mice; assay: BAL cell count; assay type: in vivo
Description: as §2, with “injury. […]” for “injury.”

[6] = test system: LPS-induced ALI in mice; assay: Lung histology (H&E); assay type: in vivo
Description: Lungs perfused free of blood after perfusion with EDTA, were immersed in 5% buffered paraformaldehyde for 18 hr at 4° C. prior to histological evaluation by hematoxylin and eosin staining (H&E staining). The right lung lobes were used for consistency. H&E staining was done by deparafinizing and hydrating the slides to water. The slides were stained in Harris Hematoxylin for 15 min and Eosin for 30 sec. The slides were dehydrated, cleared and mounted with cytoseal.

[7] = test system: myosin light chain (MLC) phosphorylation; assay: MLC phosphorylation immunoblot in LPS-treated HPAEC; assay type: cell-based, human; settings: LPS/β-NAD mixture, 4 hrs
Description: as §1

[8] = test system: HPAEC monolayers; assay: Transendothelial electrical resistance (TER) by ECIS in HPAEC monolayers; assay type: cell-based, human
Description: Human pulmonary artery endothial cells (HPAEC) and EBM-2 complete medium were purchased from Lonza (Allendale, N.J.). HPAEC were cultured according to the manufacturer's protocol and utilized at early (3-6) passages.
The barrier properties of endothelial cells monolayers were characterized using a highly sensitive electrical cell-substrate impedance sensing (ECIS) instrument to measure transendothelial electrical resistance (TER) as described (Birukova et al., 2004a. Microvasc Res 67(1):64-77; Kolosova et al., 2005, Circ Res 97(2):115-124). The TER data was normalized to the initial voltage.

NC(=O)C1=CN([C@@H]2O[C@H](COP(=O)(O)OP(=O)(O)OC[C@H]3O[C@@H](n4cnc5c(N)ncnc54)[C@H](O)[C@@H]3O)[C@@H](O)[C@H]2O)C=CC1 [β-NAD, beta-nicotinamide adenine dinucleotide]
MPO staining of lung sections (neutrophil infiltration) ([1]; LPS with β-NAD treatment): attenuated the LPS-induced myeloperoxidase | MPO activity in lungs ([1]; LPS/b-NAD vs LPS challenged mice): attenuated MPO activity | MPO activity in lungs, β-NAD alone ([1]; β-NAD alone, no LPS): no effect | Rac1 activation [2]: dramatic β-NAD-dependent activation of Rac1 at early time points | anti-inflammatory cytokines (IL-4, IL-10, and IL-13) gene expression in lungs [3]: elevated | proinflammatory cytokines (IL-1α, IL-1β, IFN-γ and TNF-α) gene expression in lungs [3]: substantially or markedly downregulated | EBD leakage into lung parenchyma on gross examination ([4]; LPS 0.9 mg/kg i.t. and b-NAD 5.46 mg/kg, 24 hr): minimal leakage | EBD-albumin in lung (average) ([4]; b-NAD/LPS treated mice): 10.41 µg/g | EBD-albumin in lung (average) ([4]; β-NAD/saline control (no LPS)): 6.54 µg/g | total WBCs in BAL fluid ([5]; LPS treated mice, BAL at 24 hr): reduced total WBCs in BAL fluid | neutrophil count of BAL fluid ([5]; LPS/b-NAD compared to LPS only treated mice): decrease in neutrophil count | interstitial edema and infiltration of neutrophils (histology) ([6]; LPS/β-NAD vs LPS treated lung, 18 hr): less prominent | lung histology, β-NAD alone ([6]; β-NAD alone, no LPS): no effect | LPS-stimulated MLC phosphorylation [7]: significantly inhibited | thrombin-induced endothelial cell permeability (TER) ([8]; 100 nM thrombin in mixture with 50 mM b-NAD): significantly attenuated the thrombin-induced endothelial cell permeability | decrease in TER from base line ([8]; LPS (100 ng/ml) with β-NAD added): ~30% | PLY-induced loss of monolayer integrity (TER) ([8]; PLY in a mixture with 50 mM β-NAD): failed to produce such drastic effect | TER of HPAEC monolayers (endothelial barrier function) ([8]; b-NAD alone, quiescent HPAEC, 10-100 mM as printed): positive effect; also recorded: significant initial increase in TER | β-NAD effect on TER after cytochalasin B ([8]; cytochalasin B pretreatment 30 min, then 50 μM β-NAD): did not increase the TER | β-NAD effect on TER after nocodazole ([8]; nocodazole pretreatment 30 min, then 50 μM β-NAD): restored endothelial cell barrier integrity
